The values that follow come from PMC2651670 (Biochemistry, 2009).

The target of experiment [1] is subcomplex Iλ (Bos taurus, UniProt P25708). As to the kind of experiment: NADH:Q1 oxidoreduction. It counts as biochemical. As to conditions: 100 μM NADH, 0.4 mg/mL asolectin, with or without 2.3 μM rotenone, pH 7.55, 32 °C; flavin site.
Experiment [2] deals with complex I (NADH:ubiquinone oxidoreductase), hydrophobic (physiological) Q-site (Bos taurus, UniProt P03887+P17694+P42026). The experiment in a line: NADH:DQ oxidoreduction, NADH absorbance. It counts as biochemical.
Sequence of complex I (NADH:ubiquinone oxidoreductase), hydrophobic (physiological) Q-site (P03887 whole entry): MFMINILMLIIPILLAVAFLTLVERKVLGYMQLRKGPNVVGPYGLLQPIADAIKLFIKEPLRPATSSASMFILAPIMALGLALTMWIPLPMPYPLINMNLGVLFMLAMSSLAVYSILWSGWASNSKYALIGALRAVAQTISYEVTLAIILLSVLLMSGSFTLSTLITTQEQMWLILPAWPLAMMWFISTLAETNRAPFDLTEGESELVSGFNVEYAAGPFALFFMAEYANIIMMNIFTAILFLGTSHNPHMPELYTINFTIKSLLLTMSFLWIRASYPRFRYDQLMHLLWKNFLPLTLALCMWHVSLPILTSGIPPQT
Sequence of complex I (NADH:ubiquinone oxidoreductase), hydrophobic (physiological) Q-site (P17694 34-463): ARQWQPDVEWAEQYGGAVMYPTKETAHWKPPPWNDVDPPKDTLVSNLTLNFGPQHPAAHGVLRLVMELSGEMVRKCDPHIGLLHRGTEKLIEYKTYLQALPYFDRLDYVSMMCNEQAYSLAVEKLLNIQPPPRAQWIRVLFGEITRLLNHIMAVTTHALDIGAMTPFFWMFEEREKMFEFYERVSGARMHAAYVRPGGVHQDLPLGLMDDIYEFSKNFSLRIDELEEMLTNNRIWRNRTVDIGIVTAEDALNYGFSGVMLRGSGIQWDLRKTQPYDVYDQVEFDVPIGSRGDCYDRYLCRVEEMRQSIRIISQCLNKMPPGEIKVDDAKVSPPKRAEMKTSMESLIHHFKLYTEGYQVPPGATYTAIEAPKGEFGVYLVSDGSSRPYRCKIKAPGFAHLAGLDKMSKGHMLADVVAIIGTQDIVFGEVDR
Sequence of complex I (NADH:ubiquinone oxidoreductase), hydrophobic (physiological) Q-site (P42026 38-216): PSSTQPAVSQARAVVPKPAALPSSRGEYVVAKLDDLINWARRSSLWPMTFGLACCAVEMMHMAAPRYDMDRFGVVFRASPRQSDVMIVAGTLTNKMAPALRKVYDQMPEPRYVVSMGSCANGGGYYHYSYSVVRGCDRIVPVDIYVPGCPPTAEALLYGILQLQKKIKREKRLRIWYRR

Sequence of subcomplex Iλ (P04394 33-249): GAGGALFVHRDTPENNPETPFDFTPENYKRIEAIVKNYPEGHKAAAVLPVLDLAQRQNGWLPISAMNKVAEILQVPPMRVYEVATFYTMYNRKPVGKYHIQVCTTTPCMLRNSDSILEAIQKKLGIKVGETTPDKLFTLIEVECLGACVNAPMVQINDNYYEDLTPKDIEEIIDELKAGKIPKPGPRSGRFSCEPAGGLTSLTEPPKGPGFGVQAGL
Sequence of subcomplex Iλ (P25708 21-464): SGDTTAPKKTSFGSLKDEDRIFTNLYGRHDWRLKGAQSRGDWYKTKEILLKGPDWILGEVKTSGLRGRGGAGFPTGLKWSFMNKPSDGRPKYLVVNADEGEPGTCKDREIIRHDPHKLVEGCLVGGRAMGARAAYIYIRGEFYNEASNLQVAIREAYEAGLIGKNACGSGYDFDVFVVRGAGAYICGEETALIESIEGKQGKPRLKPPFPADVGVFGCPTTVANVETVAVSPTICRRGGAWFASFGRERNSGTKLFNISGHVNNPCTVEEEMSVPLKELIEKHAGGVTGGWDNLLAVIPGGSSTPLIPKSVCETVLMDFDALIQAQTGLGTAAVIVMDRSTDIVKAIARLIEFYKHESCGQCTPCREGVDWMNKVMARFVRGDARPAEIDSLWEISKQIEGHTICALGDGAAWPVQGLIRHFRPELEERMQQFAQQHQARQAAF
Sequence of subcomplex Iλ (P15690 24-727, further chain): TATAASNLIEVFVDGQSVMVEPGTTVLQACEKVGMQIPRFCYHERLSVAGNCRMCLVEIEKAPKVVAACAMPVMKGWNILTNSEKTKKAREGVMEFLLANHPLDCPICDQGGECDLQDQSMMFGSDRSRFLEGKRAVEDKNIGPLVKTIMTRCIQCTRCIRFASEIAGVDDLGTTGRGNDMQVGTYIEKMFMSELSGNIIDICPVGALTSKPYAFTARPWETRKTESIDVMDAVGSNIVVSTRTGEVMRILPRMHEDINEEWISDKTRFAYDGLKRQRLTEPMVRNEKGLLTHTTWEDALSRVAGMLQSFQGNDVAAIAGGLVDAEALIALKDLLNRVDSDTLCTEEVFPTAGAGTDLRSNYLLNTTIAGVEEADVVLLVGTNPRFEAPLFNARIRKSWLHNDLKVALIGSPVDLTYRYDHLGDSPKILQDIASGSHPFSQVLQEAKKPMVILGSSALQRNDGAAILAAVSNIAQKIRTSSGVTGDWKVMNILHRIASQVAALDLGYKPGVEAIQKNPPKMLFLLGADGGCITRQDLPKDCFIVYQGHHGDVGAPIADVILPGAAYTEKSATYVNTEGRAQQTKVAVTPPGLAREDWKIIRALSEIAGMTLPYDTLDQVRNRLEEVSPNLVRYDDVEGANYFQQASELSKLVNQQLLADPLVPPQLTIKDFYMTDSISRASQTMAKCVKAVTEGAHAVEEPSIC

As to `COC1=C(OC)C(=O)C(CC=C(C)C)=C(C)C1=O` [Q1], the “NADH:Q1 oxidoreduction” value in experiment [1] is recorded as “Q1 reduction by subcomplex Iλ is independent of the presence of rotenone”. Usually inhibition stands for how much of the control response was suppressed. For `C/C=C(\C)[C@H](O)[C@H](C)/C=C(C)/C=C/C/C(C)=C/Cc1nc(OC)c(OC)c(O)c1C` [piericidin A], the inhibition at 1 µM in experiment [2] (read-out: % inhibition at 1 μM) is about 95%. For `C=C(C)[C@H]1Cc2c(ccc3c2O[C@@H]2COc4cc(OC)c(OC)cc4[C@@H]2C3=O)O1` [rotenone], the inhibition at 2.3 µM in experiment [2] (read-out: % inhibition at 2.3 μM) was about 95%.
